Experimental data: patent US4098781A, “Polypeptides with morphine-like activity” (American Home Products Corporation, priority 1977, dated 1978)
Peptide text beside a SMILES is read from it.

What was measured:
[1] = system: rats; assay: rat-tail flick method, intracerebroventricular injection; type: in vivo; parameters: Mean Latency ± SEM Baseline / Mean Latency ± SEM Drug: unit not given here; conditions: lateral ventricle; for Mean % Change ± SEM: change in latency (drug minus baseline); for Mean Latency ± SEM Baseline / Mean Latency ± SEM Drug: rat-tail flick; for Mean Latency ± SEM Baseline: baseline before drug
Protocol: In this test method, which is a standard test for analgesia, a light beam is focused on the tip of the rat's tail, and the pain threshold of the animal is measured by the latency of the rat to remove his tail from the noxious heat source. When tested by the rat-tail flick method by intracerebroventricular injection, according to the procedure of Belluzzi et al., Nature, 260, 625 (1976), the polypeptides of this invention produced the effects set forth in Table I.
*All drugs were dissolved in […]. of Ringer's solution and injected int
the lateral ventricle through permanently-indwelling cannulae.

[2] = system: rats; conditions: injection in the brain ventricle; cited from earlier work

SMILES | Mean % Change ± SEM ([1]; dose 25 μg, 1 rat) | Mean % Change ± SEM ([1]; dose 50 μg) | Mean % Change ± SEM ([1]; dose 100 μg) | Mean Latency ± SEM Baseline ([1]; dose group 25 μg, 1 rat) | Mean Latency ± SEM Baseline ([1]; dose group 50 μg) | Mean Latency ± SEM Baseline ([1]; dose group 100 μg) | Mean Latency ± SEM Drug ([1]; dose 25 μg, 1 rat) | Mean Latency ± SEM Drug ([1]; dose 50 μg) | Mean Latency ± SEM Drug ([1]; dose 100 μg) | analgesia [2] | Mean Latency ± SEM Baseline ([1]; dose group 10 μg)
CSCC[C@H](NC(=O)[C@H](Cc1ccccc1)NC(=O)CNC(=O)CNC(=O)[C@H](Cc1ccc(O)cc1)NC(=O)[C@@H](N)CCCNC(=N)N)C(=O)N[C@H](C(=O)N[C@@H](CO)C(=O)O)[C@@H](C)O [L-Arginyl-L-Tyrosyl-Glycyl-Glycyl-L-Phenylalanyl-L-Methionyl-L-Threonyl-L-Serine] (H-RYGGFMTS-OH) | 69.60% | 74.13 ± 15.56% | 55.13 ± 51.71% | 3.54 | 3.55 ± 0.13 | 3.43 ± 0.05 | 6.01 | 6.18 ± 0.55 | 5.29 ± 1.10 | – | –
CSCC[C@H](NC(=O)[C@H](Cc1ccccc1)NC(=O)CNC(=O)CNC(=O)[C@@H](N)Cc1ccc(O)cc1)C(=O)O [Methionine-Enkephalin, H-Tyr-Gly-Gly-Phe-Met-OH, reference compound] | – | – | – | – | – | 3.83 ± 0.14 | – | – | – | induce a profound analgesia that is fully reversible by naloxone | –
CN1CC[C@]23c4c5ccc(O)c4O[C@H]2[C@@H](O)C=C[C@H]3[C@H]1C5 [Morphine] | – | – | – | – | – | – | – | – | – | – | 3.96 ± 0.42
